#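 1) Cells in 96-well plates. 2) Compound, 48 h, 5 concentrations. 3) Linear interpolation between surrounding doses. 4) Unreached endpoint = highest concentration. GI50 = concentration required for 50% inhibition of growth.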 Activity calls are given as the source filed them. No stated cut-off is given here; in the data, active = GI50 up to about 1.1 µM and inactive = higher.
# Columns and labels:
# Assay in all cases: NCI tumour cell line growth inhibition, 48 h
# SF-268 = test system: SF-268
# MOLT-4 = test system: MOLT-4
# 786-0 = test system: 786-0
# MDA-MB-435 = test system: MDA-MB-435
# HOP-62 = test system: HOP-62
# SN12C = test system: SN12C
# MDA-N = test system: MDA-N
# LOX IMVI = test system: LOX IMVI
# COLO 205 = test system: COLO 205
# UACC-257 = test system: UACC-257
# NCI-H460 = test system: NCI-H460
# SF-295 = test system: SF-295
# RPMI-8226 = test system: RPMI-8226
# UACC-62 = test system: UACC-62
# A549 = test system: A549
# M14 = test system: M14
# HCC 2998 = test system: HCC 2998
# SK-MEL-28 = test system: SK-MEL-28
# IGROV-1 = test system: IGROV-1
Structure (SMILES),GI50 (SF-268),GI50 (MOLT-4),GI50 (786-0),GI50 (MDA-MB-435),GI50 (HOP-62),GI50 (SN12C),GI50 (MDA-N),GI50 (LOX IMVI),GI50 (COLO 205),GI50 (UACC-257),GI50 (NCI-H460),GI50 (SF-295),GI50 (RPMI-8226),GI50 (UACC-62),GI50 (A549),GI50 (M14),GI50 (HCC 2998),GI50 (SK-MEL-28),GI50 (IGROV-1)
CN(C)c1ccc(/C=C/C(=O)c2ccc(O)cc2)cc1,15.4 µM (inactive),2.64 µM (inactive),7.64 µM (inactive),1.27 µM (inactive),10.1 µM (inactive),5.37 µM (inactive),0.935 µM (active),6.35 µM (inactive),14 µM (inactive),7.66 µM (inactive),4.72 µM (inactive),4.58 µM (inactive),3.85 µM (inactive),4.08 µM (inactive),6.27 µM (inactive),4.14 µM (inactive),15.1 µM (inactive),4.88 µM (inactive),10.2 µM (inactive)
Cc1ccc(-c2nnc(-c3ccc4ccccc4c3)o2)cc1,9.31 µM (inactive),3.13 µM (inactive),11.9 µM (inactive),8.11 µM (inactive),18 µM (inactive),14.6 µM (inactive),17.5 µM (inactive),11.3 µM (inactive),> 100 µM (inactive),22.2 µM (inactive),83 µM (inactive),36.2 µM (inactive),6.78 µM (inactive),13 µM (inactive),> 100 µM (inactive),12.3 µM (inactive),> 100 µM (inactive),33.3 µM (inactive),> 91.2 µM (inactive)
C[C@]12CC[C@@H]3c4ccc(O)cc4CC[C@H]3[C@@H]1C/C(=C\c1ccc([N+](=O)[O-])cc1)C2=O,52.6 µM (inactive),> 100 µM (inactive),> 100 µM (inactive),37.8 µM (inactive),33.7 µM (inactive),> 100 µM (inactive),49.5 µM (inactive),36.6 µM (inactive),> 100 µM (inactive),34.8 µM (inactive),48 µM (inactive),> 100 µM (inactive),> 100 µM (inactive),37.8 µM (inactive),57.9 µM (inactive),53.3 µM (inactive),73.3 µM (inactive),> 100 µM (inactive),> 100 µM (inactive)
CC#CCCN(CC#N)Cc1ccccc1,> 100 µM (inactive),> 100 µM (inactive),> 100 µM (inactive),> 100 µM (inactive),> 100 µM (inactive),> 100 µM (inactive),> 100 µM (inactive),> 100 µM (inactive),> 100 µM (inactive),> 100 µM (inactive),> 100 µM (inactive),> 100 µM (inactive),> 100 µM (inactive),18.1 µM (inactive),> 100 µM (inactive),> 100 µM (inactive),> 100 µM (inactive),> 100 µM (inactive),> 100 µM (inactive)
O=[N+]([O-])c1cccc2nc3ccccc3c(NCCCN3CCOCC3)c12,0.0226 µM (active),< 0.01 µM (active),< 0.0106 µM (active),< 0.0117 µM (active),< 0.016 µM (active),< 0.0132 µM (active),< 0.01 µM (active),0.0442 µM (active),< 0.01 µM (active),0.0235 µM (active),< 0.01 µM (active),0.0256 µM (active),0.0103 µM (active),0.0163 µM (active),< 0.0121 µM (active),< 0.0124 µM (active),< 0.01 µM (active),0.034 µM (active),0.0217 µM (active)
CN(C)c1ccc(/C=C2\N=C(c3ccccc3)N(c3ccc4c(c3)Sc3cc(N5C(=O)/C(=C/c6ccc(N(C)C)cc6)N=C5c5ccccc5)ccc3N4)C2=O)cc1,19.2 µM (inactive),61.5 µM (inactive),22.9 µM (inactive),21.5 µM (inactive),13.7 µM (inactive),19.1 µM (inactive),53.8 µM (inactive),19.5 µM (inactive),> 100 µM (inactive),19.7 µM (inactive),23.9 µM (inactive),15.2 µM (inactive),20.4 µM (inactive),16.6 µM (inactive),22.1 µM (inactive),21.2 µM (inactive),19.6 µM (inactive),50.8 µM (inactive),18.1 µM (inactive)
O=C(CNc1ccccc1[N+](=O)[O-])Nn1c(-c2ccccc2)nc2ccccc2c1=O,32.4 µM (inactive),16.1 µM (inactive),18.9 µM (inactive),24.5 µM (inactive),20.1 µM (inactive),25.8 µM (inactive),19.9 µM (inactive),11.2 µM (inactive),20.6 µM (inactive),> 10 µM (inactive),20.9 µM (inactive),20.6 µM (inactive),20.9 µM (inactive),10.7 µM (inactive),43.5 µM (inactive),16.7 µM (inactive),13.5 µM (inactive),23.5 µM (inactive),16.3 µM (inactive)
NS(=O)(=O)c1nnc(/N=C(/CCC(=O)O)C(=O)O)s1,–,> 100 µM (inactive),> 100 µM (inactive),> 100 µM (inactive),> 100 µM (inactive),> 100 µM (inactive),> 100 µM (inactive),> 100 µM (inactive),> 100 µM (inactive),> 100 µM (inactive),> 100 µM (inactive),> 100 µM (inactive),> 100 µM (inactive),> 100 µM (inactive),> 100 µM (inactive),> 100 µM (inactive),> 100 µM (inactive),> 100 µM (inactive),> 100 µM (inactive)
CC(C)(C)OC(=O)NC(CCC(=O)OCc1ccccc1)C(=O)NCCCO (centres undefined),> 100 µM (inactive),> 100 µM (inactive),> 100 µM (inactive),> 100 µM (inactive),> 100 µM (inactive),> 100 µM (inactive),> 100 µM (inactive),> 100 µM (inactive),–,> 100 µM (inactive),> 100 µM (inactive),–,> 100 µM (inactive),> 100 µM (inactive),> 100 µM (inactive),> 100 µM (inactive),> 100 µM (inactive),> 100 µM (inactive),> 100 µM (inactive)
Clc1cc2c(cc1Cl)CC(NCCN1CCCC1)CC2 (centres undefined),15.3 µM (inactive),20.5 µM (inactive),13.2 µM (inactive),3.73 µM (inactive),16 µM (inactive),15.8 µM (inactive),3.85 µM (inactive),13.3 µM (inactive),3.07 µM (inactive),7.82 µM (inactive),16.4 µM (inactive),16.1 µM (inactive),12.6 µM (inactive),2.87 µM (inactive),14.8 µM (inactive),12 µM (inactive),2.7 µM (inactive),10.2 µM (inactive),15.4 µM (inactive)
Cc1cc(Nc2ccc(S(=O)(=O)O)cc2)c2ccccc2n1,> 100 µM (inactive),> 100 µM (inactive),> 100 µM (inactive),> 100 µM (inactive),40.9 µM (inactive),> 100 µM (inactive),> 100 µM (inactive),> 100 µM (inactive),> 100 µM (inactive),> 100 µM (inactive),–,> 100 µM (inactive),> 100 µM (inactive),> 100 µM (inactive),> 100 µM (inactive),> 100 µM (inactive),> 100 µM (inactive),> 100 µM (inactive),> 100 µM (inactive)
O=C(C1=CCC2(CC1)OCCO2)N(Cc1ccccc1)c1ccccc1I,13.4 µM (inactive),63.8 µM (inactive),18.8 µM (inactive),19.7 µM (inactive),22.4 µM (inactive),24 µM (inactive),29 µM (inactive),21.2 µM (inactive),17.7 µM (inactive),19.2 µM (inactive),18.9 µM (inactive),21.4 µM (inactive),24.4 µM (inactive),13.5 µM (inactive),28 µM (inactive),16.9 µM (inactive),16.8 µM (inactive),21.2 µM (inactive),–
CCC12CN(C(=O)OC)C3C(Br)C1CCC(=O)C32 (centres undefined),> 100 µM (inactive),> 100 µM (inactive),> 100 µM (inactive),> 100 µM (inactive),> 100 µM (inactive),–,> 100 µM (inactive),> 100 µM (inactive),> 100 µM (inactive),> 100 µM (inactive),> 100 µM (inactive),> 100 µM (inactive),> 100 µM (inactive),> 100 µM (inactive),> 100 µM (inactive),> 100 µM (inactive),> 100 µM (inactive),> 100 µM (inactive),> 100 µM (inactive)
COC(=O)[C@H](Cc1c[nH]c2ccccc12)NP(=O)(OCCC#N)OCC1OC(n2cc(C)c(=O)[nH]c2=O)CC1N=[N+]=[N-] (some centres undefined),> 100 µM (inactive),> 100 µM (inactive),> 100 µM (inactive),> 100 µM (inactive),> 100 µM (inactive),> 100 µM (inactive),> 100 µM (inactive),> 100 µM (inactive),> 100 µM (inactive),> 100 µM (inactive),> 100 µM (inactive),> 100 µM (inactive),> 100 µM (inactive),> 100 µM (inactive),> 100 µM (inactive),> 100 µM (inactive),> 100 µM (inactive),–,> 100 µM (inactive)

# Source: ChEMBL document CHEMBL1201862, “PubChem BioAssay data set” (2004)
